Data published in ChEMBL document CHEMBL1156278, “Novel benzothiophene H1-antihistamines for the treatment of insomnia” (Bioorg Med Chem Lett, 2010).
Calls of active or inactive are those of the source. The calls are words filed in the database; no cut-off is given here.

Assays:
Histamine H1 receptor = Histamine H1 receptor (Homo sapiens, UniProt P35367); test: Displacement of [3H]pyrilamine from human histamine H1 receptor expressed in CHO Flp-In cells after 90 mins by scintillation counting; assay type: cell-based; details: read-out: Ki
Chain of Histamine H1 receptor (P35367 whole entry): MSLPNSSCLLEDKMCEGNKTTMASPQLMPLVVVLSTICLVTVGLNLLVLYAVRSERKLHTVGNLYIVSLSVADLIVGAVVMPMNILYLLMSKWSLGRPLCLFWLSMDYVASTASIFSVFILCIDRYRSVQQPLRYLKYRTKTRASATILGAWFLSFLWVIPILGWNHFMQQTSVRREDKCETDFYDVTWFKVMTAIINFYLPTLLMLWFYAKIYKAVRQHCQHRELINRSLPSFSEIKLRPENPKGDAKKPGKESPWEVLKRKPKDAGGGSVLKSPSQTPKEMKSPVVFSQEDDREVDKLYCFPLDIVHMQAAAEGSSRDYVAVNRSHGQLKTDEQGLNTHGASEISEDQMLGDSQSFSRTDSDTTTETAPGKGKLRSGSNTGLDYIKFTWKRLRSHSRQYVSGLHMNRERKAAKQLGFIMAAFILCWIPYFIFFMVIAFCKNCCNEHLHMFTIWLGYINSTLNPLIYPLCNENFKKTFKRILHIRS

[1] = target: T1, Muscarinic acetylcholine receptor M1 (Homo sapiens, UniProt P11229); test: Displacement of [3H]N-methylscopolamine from human muscarinic M1 receptor expressed in CHO Flp-In cells after 90 mins by scintillation counting; assay type: cell-based; details: read-out: Ki
T1 sequence (P11229 whole entry): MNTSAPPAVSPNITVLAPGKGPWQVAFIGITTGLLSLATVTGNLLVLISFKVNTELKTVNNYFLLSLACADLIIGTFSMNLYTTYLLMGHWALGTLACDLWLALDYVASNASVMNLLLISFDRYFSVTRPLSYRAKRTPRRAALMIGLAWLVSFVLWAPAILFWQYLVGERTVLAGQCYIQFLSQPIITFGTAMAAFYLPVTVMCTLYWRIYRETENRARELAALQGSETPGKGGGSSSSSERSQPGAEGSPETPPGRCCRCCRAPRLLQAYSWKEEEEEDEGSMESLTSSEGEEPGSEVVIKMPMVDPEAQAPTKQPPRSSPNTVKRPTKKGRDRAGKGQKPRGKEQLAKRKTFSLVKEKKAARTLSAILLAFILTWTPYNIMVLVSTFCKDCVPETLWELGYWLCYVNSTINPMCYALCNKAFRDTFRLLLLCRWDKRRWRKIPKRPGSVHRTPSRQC

Cytochrome P450 2D6 = Cytochrome P450 2D6 (Homo sapiens, UniProt P10635); test: Inhibition of recombinant CYP2D6 after 30 mins by fluorescence assay
Chain of Cytochrome P450 2D6 (P10635 whole entry): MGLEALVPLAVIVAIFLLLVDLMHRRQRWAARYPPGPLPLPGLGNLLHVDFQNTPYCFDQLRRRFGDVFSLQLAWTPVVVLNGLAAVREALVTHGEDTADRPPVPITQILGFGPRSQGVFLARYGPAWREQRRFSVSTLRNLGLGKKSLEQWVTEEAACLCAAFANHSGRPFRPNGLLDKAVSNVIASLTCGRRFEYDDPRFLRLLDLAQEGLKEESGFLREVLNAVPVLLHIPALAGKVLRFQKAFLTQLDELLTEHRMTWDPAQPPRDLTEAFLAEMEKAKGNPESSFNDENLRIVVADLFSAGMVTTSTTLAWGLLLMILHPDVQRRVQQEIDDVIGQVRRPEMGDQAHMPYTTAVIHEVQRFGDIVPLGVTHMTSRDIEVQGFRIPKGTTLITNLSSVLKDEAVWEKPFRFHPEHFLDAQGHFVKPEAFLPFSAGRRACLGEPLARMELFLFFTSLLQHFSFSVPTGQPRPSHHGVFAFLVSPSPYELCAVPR

Cytochrome P450 3A4 = Cytochrome P450 3A4 (Homo sapiens, UniProt P08684); test: Inhibition of recombinant CYP3A4 after 30 mins by fluorescence assay
Chain of Cytochrome P450 3A4 (P08684 whole entry): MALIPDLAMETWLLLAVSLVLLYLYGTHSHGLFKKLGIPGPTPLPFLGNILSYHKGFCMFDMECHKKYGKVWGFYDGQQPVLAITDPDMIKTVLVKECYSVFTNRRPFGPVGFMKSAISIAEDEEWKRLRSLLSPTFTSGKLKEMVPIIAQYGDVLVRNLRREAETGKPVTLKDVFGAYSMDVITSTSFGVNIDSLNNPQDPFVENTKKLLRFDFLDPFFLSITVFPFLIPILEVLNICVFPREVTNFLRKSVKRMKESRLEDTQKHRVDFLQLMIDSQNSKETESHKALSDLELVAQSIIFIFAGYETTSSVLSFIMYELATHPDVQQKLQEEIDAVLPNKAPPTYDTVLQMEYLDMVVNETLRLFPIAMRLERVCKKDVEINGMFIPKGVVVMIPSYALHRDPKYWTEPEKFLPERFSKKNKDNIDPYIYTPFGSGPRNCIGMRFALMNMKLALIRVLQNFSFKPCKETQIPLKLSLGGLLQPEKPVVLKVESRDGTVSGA

[2] = target: T2, Voltage-gated inwardly rectifying potassium channel KCNH2 (Homo sapiens, UniProt Q12809); test: Displacement of [3H]Dofetilide from human ERG
T2 sequence (Q12809 whole entry): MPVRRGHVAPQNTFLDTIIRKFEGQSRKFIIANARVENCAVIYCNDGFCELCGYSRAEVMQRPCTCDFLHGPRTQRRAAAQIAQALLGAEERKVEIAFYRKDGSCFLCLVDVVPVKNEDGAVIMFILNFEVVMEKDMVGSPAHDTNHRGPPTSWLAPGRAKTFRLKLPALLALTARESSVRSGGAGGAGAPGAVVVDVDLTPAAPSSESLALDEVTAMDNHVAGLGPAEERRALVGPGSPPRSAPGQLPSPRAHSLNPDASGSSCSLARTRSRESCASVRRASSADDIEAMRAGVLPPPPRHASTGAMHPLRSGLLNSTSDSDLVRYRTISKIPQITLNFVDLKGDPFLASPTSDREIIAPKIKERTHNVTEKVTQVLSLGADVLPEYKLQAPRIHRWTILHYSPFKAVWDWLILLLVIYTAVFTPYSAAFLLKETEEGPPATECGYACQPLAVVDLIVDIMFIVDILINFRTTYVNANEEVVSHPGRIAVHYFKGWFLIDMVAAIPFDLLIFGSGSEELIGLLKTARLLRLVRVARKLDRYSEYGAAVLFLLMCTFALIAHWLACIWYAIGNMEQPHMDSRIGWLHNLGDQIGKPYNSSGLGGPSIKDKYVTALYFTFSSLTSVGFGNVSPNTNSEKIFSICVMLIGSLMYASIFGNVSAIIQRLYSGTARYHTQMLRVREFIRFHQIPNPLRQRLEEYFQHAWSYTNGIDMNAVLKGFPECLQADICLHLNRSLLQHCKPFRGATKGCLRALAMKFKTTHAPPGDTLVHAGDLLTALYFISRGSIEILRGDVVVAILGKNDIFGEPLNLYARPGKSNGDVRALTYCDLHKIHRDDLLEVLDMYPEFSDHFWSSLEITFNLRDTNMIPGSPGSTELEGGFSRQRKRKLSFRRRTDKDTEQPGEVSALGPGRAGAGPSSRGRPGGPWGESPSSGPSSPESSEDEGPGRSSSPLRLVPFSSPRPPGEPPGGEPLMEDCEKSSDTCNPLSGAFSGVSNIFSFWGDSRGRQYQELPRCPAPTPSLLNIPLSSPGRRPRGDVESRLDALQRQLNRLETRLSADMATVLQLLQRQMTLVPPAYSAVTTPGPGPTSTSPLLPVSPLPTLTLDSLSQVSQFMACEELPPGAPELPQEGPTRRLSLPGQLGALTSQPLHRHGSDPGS

[3] = target: T2, Voltage-gated inwardly rectifying potassium channel KCNH2; test: Inhibition of human ERG expressed in HEK cells assessed as blockade of potassium tail current by standard patch clamp analysis
Rattus norvegicus [4] = test: Increase in REM sleep in CD IGS rat model of insomnia at 30 mg/kg, po after 4 hrs by EEG/EMG study relative to control; assay type: functional
[5] = Apparent permeability across human Caco-2 cells; assay type: ADME, cell-based
[6] = Drug level in rat plasma at 30 mg/kg, po after 4 hrs; assay type: ADME, organism-based; design: dose 30 mg/kg, route oral
[7] = Drug level in rat brain at 30 mg/kg, po after 4 hrs; assay type: ADME, organism-based; design: dose 30 mg/kg, route oral; details: read-out: Drug uptake
[8] = Ratio of drug level in rat brain to plasma at 30 mg/kg, po after 4 hrs; assay type: ADME, organism-based; design: dose 30 mg/kg, route oral; details: read-out: Ratio
[9] = Activity at P-glycoprotein
[10] = Systemic clearance in human at 0.1 mg/kg, iv by microdose study; assay type: ADME, organism-based; design: dose 0.1 mg/kg, route intravenous; details: in vivo
[11] = AUC (0 to t) in human at 0.1 mg/kg, po by microdose study; assay type: ADME, organism-based; design: dose 0.1 mg/kg, route oral; details: plasma
[12] = Half life in human at 0.1 mg/kg by microdose study; assay type: ADME, organism-based; design: dose 0.1 mg/kg; details: in vivo
[13] = Volume of distribution at steady state in human at 0.1 mg/kg by microdose study; assay type: ADME, organism-based; design: dose 0.1 mg/kg; details: in vivo, read-out: Vdss
[14] = Bioavailability in human at 0.1 mg/kg by microdose study; assay type: ADME, organism-based; details: in vivo
Rattus norvegicus [15] = test: Increase in NREM sleep in CD IGS rat model of insomnia at 30 mg/kg, po after 4 hrs by EEG/EMG study relative to control; assay type: functional
Rattus norvegicus [16] = test: Increase in NREM sleep in CD IGS rat model of insomnia at 60 mg/kg, po after 4 hrs by EEG/EMG study relative to control; assay type: functional
Rattus norvegicus [17] = test: Effect on sleep-awake pattern in CD IGS rat model of insomnia assessed as latency to NREM sleep at 30 mg/kg, po by EEG/EMG study relative to control; assay type: functional
Rattus norvegicus [18] = test: Effect on sleep-awake pattern in CD IGS rat model of insomnia assessed as latency to NREM sleep at 60 mg/kg, po by EEG/EMG study relative to control; assay type: functional
Rattus norvegicus [19] = test: Effect on sleep-awake pattern in CD IGS rat model of insomnia assessed as longest 3 NREM bouts at 30 mg/kg, po after 6 hrs by EEG/EMG study relative to control; assay type: functional
Rattus norvegicus [20] = test: Effect on sleep-awake pattern in CD IGS rat model of insomnia assessed as longest 3 NREM bouts at 60 mg/kg, po after 6 hrs by EEG/EMG study relative to control; assay type: functional
Rattus norvegicus [21] = test: Increase in REM sleep in CD IGS rat model of insomnia at 60 mg/kg, po after 4 hrs by EEG/EMG study relative to control; assay type: functional
Rattus norvegicus [22] = test: Effect on sleep-awake pattern in CD IGS rat model of insomnia assessed as latency to REM sleep at 30 mg/kg, po by EEG/EMG study relative to control; assay type: functional
Rattus norvegicus [23] = test: Effect on sleep-awake pattern in CD IGS rat model of insomnia assessed as latency to REM sleep at 60 mg/kg, po by EEG/EMG study relative to control; assay type: functional
Rattus norvegicus [24] = test: Effect on sleep-awake pattern in CD IGS rat model of insomnia assessed as longest 3 REM bouts at 30 mg/kg, po after 6 hrs by EEG/EMG study relative to control; assay type: functional
Rattus norvegicus [25] = test: Effect on sleep-awake pattern in CD IGS rat model of insomnia assessed as longest 3 REM bouts at 60 mg/kg, po after 6 hrs by EEG/EMG study relative to control; assay type: functional

Work on `C[C@H](c1cccnc1Cl)c1c(CCN(C)C)sc2ccccc12` yielded a Ki (Histamine H1 receptor) of 2.9 nM, a Ki [1] of over 10000 nM and an IC50 (Cytochrome P450 2D6) of 9500 nM. It also gave an IC50 (Cytochrome P450 3A4) of over 10000 nM, a Ki [2] of over 5000 nM and an IC50 [3] of 1500 nM.

For `C[C@@H](c1cscn1)c1c(CCN(C)C)sc2ccccc12`, the Ki (Histamine H1 receptor) was 4.6 nM, the Ki [1] was 4760 nM and the IC50 (Cytochrome P450 3A4) was over 10000 nM.

Work on `C[C@@H](c1ccc(F)cn1)c1c(CCN(C)C)sc2ccccc12` yielded a Ki (Histamine H1 receptor) of 13 nM, a Ki [1] of over 10000 nM and an IC50 (Cytochrome P450 2D6) of over 10000 nM. It also gave an IC50 (Cytochrome P450 3A4) of over 10000 nM, a Ki [2] of 2500 nM and an IC50 [3] of 240 nM.

Work on `Cc1ccc(C(C)c2c(CCN(C)C)sc3ccccc23)cn1` (racemic) yielded a Ki (Histamine H1 receptor) of 69 nM, a Ki [1] of over 10000 nM and an IC50 (Cytochrome P450 3A4) of over 10000 nM. It also gave a Ki [2] of over 5000 nM.

In the case of `Cc1ccnc(C(C)c2c(CCN(C)C)sc3ccccc23)c1` (racemic), the Ki (Histamine H1 receptor) is reported as 390 nM, the Ki [1] is reported as over 10000 nM and the IC50 (Cytochrome P450 3A4) is reported as over 10000 nM. For the same compound, the Ki [2] was over 5000 nM.

In the case of `CC(c1nccs1)c1c(CCN(C)C)sc2ccccc12` (racemic), the Ki (Histamine H1 receptor) is reported as 35 nM, the Ki [1] is reported as 2070 nM and the IC50 (Cytochrome P450 3A4) is reported as over 10000 nM. It also gave a Ki [2] of over 5000 nM.

With `C[C@H](c1cccnc1F)c1c(CCN(C)C)sc2ccccc12` the Activity (Rattus norvegicus [4]) was 6.4%, the Ki (Histamine H1 receptor) was 1.7 nM and the Ki [1] was over 10000 nM. The Papp [5] was over 21.7 ×10⁻⁶ cm/s, the concentration at 4 h [6] was 3 ng/mL and the concentration at 4 h [7] was 83 ng/g. For the same compound, the Kp at 4 h [8] was 26, the Activity [9] was “inactive” and the clearance [10] was 12.1 mL/min/kg. The AUC(0-t) [11] was 0.64 ng·h/mL, the half-life [12] was 13 h and the Vd [13] was 5.6 L/kg. For the same compound, the bioavailability [14] was 23%, the Activity (Rattus norvegicus [15]) was 27.4% and the Activity (Rattus norvegicus [16]) was 32%. The Activity (Rattus norvegicus [17]) was 33 min, the Activity (Rattus norvegicus [18]) was 45 min and the Activity (Rattus norvegicus [19]) was 5.8 min. For the same compound, the Activity (Rattus norvegicus [20]) was 6.7 min, the Activity (Rattus norvegicus [21]) was 6.6% and the Activity (Rattus norvegicus [22]) was 49 min. It also gave an Activity (Rattus norvegicus [23]) of 64 min, an Activity (Rattus norvegicus [24]) of 2.1 min and an Activity (Rattus norvegicus [25]) of 2.2 min.
